# Test results from patent US10675352B2 (CENTROSE, LLC, priority 2014, dated 2020).
# Read-outs that look alike come from different tables or passages of the source.
# Tests used:
# [1] = system: SU-DHL-8 cells; assay: cells; settings: Homo sapiens, SU-DHL-8, 72 h, read-out: EC50 in picoM, SUDHL8
# [2] = system: Ramos; assay: cells; settings: Homo sapiens, 72 h, read-out: EC50 in picoM, Ramos
# [3] = system: SU-DHL-8 cells; settings: agents and agent-linker intermediates; value in parentheses; 3 days incubation
# [4] = system: Ramos
# [5] = system: HL60, U937, MV411, Hut78, H929, and RAMOS; assay: In vitro cytotoxic activity on six human blood cancer cell types, overall statements; type: cell-based; settings: all cell lines tested except RAMOS
# Description: Agent loading was determined to be about 4.
structure (smiles),measurement,setting,value
C[C@]12CCC(OC[C@@H]3OC[C@H](N)C(O)C3O)C=C1CCC1C2CC[C@]2(C)[C@@H](c3ccc(=O)oc3)CC[C@]12O (some centres unmarked) [CEN09-106],EC50,[1],2.07 nM
same,EC50,[2],1.9 nM
same,"% viab., SUDHL8",[3],0%
"CN(CCCN)CCCNC(=O)O[C@H]1CC[C@@]2(C)C(CCC3C2CC[C@]2(C)C(c4ccc(=O)oc4)CC[C@]32O)C1 (stereo in doubt) [CEN-372, 5-[(1S,2S,5S,7R,10R,11S,14S,15R)-5-{3-[N-Methyl(3-aminopropyl)amino]propylaminocarbonyloxy}-11-hydroxy-2,15-dimethyltetracyclo[8.7.0.02,7.011,15]heptadec-14-yl]-2-pyranone]",EC50,[1],4.4 nM
same,EC50,[2],3.6 nM
C[C@]12CC[C@H](OC[C@@H]3OC[C@H](N)C(O)C3O)CC1CCC1C2CC[C@]2(C)[C@@H](C3=CC(=O)OC3)CC[C@]12O (some centres unmarked) [CEN-319],EC50,[1],8.4 nM
same,"% viab., Ramos","[4]; human, 3 days",0%
same,EC50,[2],5.8 nM
C[C@]12CC[C@H](OC(=O)NCCCN3CCN(CCCN)CC3)C[C@H]1CC[C@@H]1[C@@H]2CC[C@]2(C)[C@@H](C3=CC(=O)OC3)CC[C@]12O,EC50,[1],> 50 nM
same,EC50,[2],> 50 nM
"C[C@]12CC[C@H](O)C[C@H]1CC[C@@H]1[C@@H]2CC[C@]2(C)[C@@H](C3=CC(=O)OC3)CC[C@]12O [Digitoxigenin, reference compound]",EC50,[1],> 50 nM
same,EC50,[2],> 50 nM
"C[C@]12CC[C@H](O)C=C1CC[C@@H]1[C@@H]2CC[C@]2(C)[C@@H](c3ccc(=O)oc3)CC[C@]12O [Scillarenin, reference compound]",EC50,[1],18 nM
same,EC50,[2],17 nM
C[C@]12CC[C@H](OC(=O)NCCCN3CCN(CCCN)CC3)CC1CCC1C2CC[C@]2(C)[C@@H](c3ccc(=O)oc3)CC[C@]12O (some centres unmarked) [CEN-371],EC50,[1],11 nM
same,"% viab., Ramos","[4]; agents and agent-linker intermediates, value in parentheses, 3 days incubation",0%
same,EC50,[2],7.81 nM
same,"% viab., SUDHL8",[3],0%
"C[C@]12CC[C@H](O)C[C@H]1CC[C@@H]1[C@@H]2CC[C@]2(C)[C@@H](c3ccc(=O)oc3)CC[C@]12O [Bufalin, reference compound]",EC50,[1],16 nM
same,EC50,[2],7.3 nM
"CC1=C(/C=C/C(C)=C/C=C/C(C)=C/C(=O)O)C(C)(C)CCC1 [ATRA, all-trans-retinoic acid]",effect of ATRA alone on cell growth,[5],slowed cell growth
"C[C@]12CC[C@H](OC(=O)NCCCNCCCN)CC1CCC1C2CC[C@]2(C)C(c3ccc(=O)oc3)CC[C@]12O (stereo in doubt) [CEN-373, 5-{(1S,2S,5S,7R,10R,11S,14S,15R)-5-[3-(3-Aminopropylamino)propylaminocarbonyloxy]-11-hydroxy-2,15-dimethyltetracyclo[8.7.0.02,7.011,15]heptadec-14-yl}-2-pyranone]",EC50,[1],5.9 nM
same,EC50,[2],4 nM
